Experimental data: ChEMBL document CHEMBL4177718, “Discovery of molecular mechanism of a clinical herbal formula upregulating serum HDL-c levels in treatment of metabolic syndrome by in vivo and computational studies” (2018)

Species: Rattus norvegicus
Assay: Up-regulation of ABCA1 protein expression in serum of Wistar rat model of metabolic syndrome fed with high-sugar-fat-diet for 15 weeks followed by high-fat emulsion for 2 weeks by ELISA
Assay type: functional

Row | SMILES | fold change (FC)
1 | COc1cc(N)ccc1C(=O)/C=C/c1ccc(C)s1 | 1.5
2 | CCc1ccc(/C=C/C(=O)c2ccc(N)cc2O)cc1 | 1.73
3 | Nc1ccc(C(=O)/C=C/c2ccc(-c3ccccc3)cc2)c(O)c1 | 1.55
4 | Nc1ccc(C(=O)/C=C/c2cccc(Oc3ccccc3)c2)c(O)c1 | 1.76
5 | COc1ccc(-c2ccc(/C=C/C(=O)c3ccc(N)cc3O)s2)cc1 | 1.09
6 | Nc1ccc(C(=O)/C=C/c2csc3ccccc23)c(O)c1 | 2.31
7 | Nc1ccc(C(=O)/C=C/c2c[nH]c3ccccc23)c(O)c1 | 1.76
8 | Nc1ccc(C(=O)/C=C/c2ccc3ccccc3c2)c(O)c1 | 2.64
9 | Nc1ccc(C(=O)/C=C/c2ccc3c(c2)OCO3)c(O)c1 | 1.92
10 | Cc1ccc(CCC(=O)c2ccc(N)cc2O)o1 | 1.9
11 | Nc1ccc(C(=O)CCc2ccc3ccccc3c2)c(O)c1 | 1.34
12 | COc1cc(N(C)C)ccc1C(=O)/C=C/c1ccc(C)o1 | 1.57
13 | COc1cc(N(C)C)ccc1C(=O)/C=C/c1ccc2ccccc2c1 | 1.35
14 | COc1cc(N)ccc1C(=O)/C=C/c1ccc2ccccc2c1 | 0.88
15 | COc1cc(N)ccc1C(=O)/C=C/c1ccc(C)o1 | 1.2
16 | CCOc1ccc(/C=C/C(=O)c2ccc(N)cc2OC)cc1 | 1.06
17 | Cc1ccc(/C=C/C(=O)c2ccc(N(C)C)cc2O)o1 | 1.02
18 | CC(=O)Nc1ccc(C(=O)/C=C/c2ccc(C)s2)c(O)c1 | 1.08
19 | O=c1cc(-c2c[nH]c3ccccc23)oc2cc(O)ccc12 | 1.9
20 | O=c1cc(-c2csc3ccccc23)oc2cc(O)ccc12 | 1.44
21 | O=C(O)c1ccc(-c2cc(=O)c3ccc(O)cc3o2)cc1 | 1.66

Row | SMILES | fold change (FC)
22 | CC(C)c1ccc(-c2cc(=O)c3ccc(O)cc3o2)cc1 | 1.22
23 | O=c1cc(-c2cccc(Oc3ccccc3)c2)oc2cc(O)ccc12 | 1.17
24 | O=c1cc(-c2ccc(-c3ccccc3)cc2)oc2cc(O)ccc12 | 1.15
25 | COc1ccc(-c2ccc(-c3cc(=O)c4ccc(O)cc4o3)s2)cc1 | 1.03
26 | Cc1ccc(-c2cc(=O)c3ccc(N)cc3o2)o1 | 1.3
27 | Cc1ccc(-c2cc(=O)c3ccc(N)cc3o2)s1 | 1.47
28 | CCOc1ccc(-c2cc(=O)c3ccc(N)cc3o2)cc1 | 1.37
29 | Cc1ccc(/C=C/C(=O)c2ccc(N)cc2O)o1 | 2.09
30 | Cc1ccc(/C=C/C(=O)c2ccc(N)cc2O)s1 | 2
31 | CCOc1ccc(/C=C/C(=O)c2ccc(N)cc2O)cc1 | 1.92
32 | CSc1ccc(/C=C/C(=O)c2ccc(N)cc2O)cc1 | 1.26
33 | COc1cccc(/C=C/C(=O)c2ccc(N)cc2O)c1 | 2.09
34 | Nc1ccc(C(=O)/C=C/c2ccc(F)cc2)c(O)c1 | 1.36
35 | Nc1ccc(C(=O)/C=C/c2ccc(Cl)cc2)c(O)c1 | 1.16
36 | Nc1ccc(C(=O)/C=C/c2cc(C(F)(F)F)cc(C(F)(F)F)c2)c(O)c1 | 1.12
37 | COc1cc(/C=C/C(=O)c2ccc(N)cc2O)cc(OC)c1OC | 0.98
38 | CC(C)c1ccc(/C=C/C(=O)c2ccc(N)cc2O)cc1 | 2.05
39 | O=c1cc(-c2ccc3ccccc3n2)oc2cc(O)ccc12 | 1.36
40 | O=c1cc(-c2ccc3ccccc3c2)oc2cc(O)ccc12 | 1.57
41 | COc1ccc(/C=C/C(=O)c2ccc(N)cc2O)cc1OC | 1.86
